SMILES strings stand for the structures. The source made the active and inactive calls. The rule behind the calls is not given here.

Assay [1] relates to Rattus norvegicus. In words: Analgesic activity in Chronic constriction injury rat model assessed as decrease in hyperalgesia at 300 microg/kg,IM administrated every 2 hrs and measured after 24 hrs. Type of assay: functional, organism-based. Particulars: dose 300.0 µg/kg.
Assay [2] deals with Voltage-dependent N-type calcium channel subunit alpha-1B (Homo sapiens, UniProt Q00975). Description: Inhibition of human Cav2.2 channel transfected in HEK293T cells co-expressed with human GABAB receptor assessed as inhibition of Cav2.2-mediated Ba2+ current measured for 3 to 5 days by whole-cell patch clamp assay. The format is cell-based. For orientation: Patch clamp records ionic current or voltage across a cell membrane.
Voltage-dependent N-type calcium channel subunit alpha-1B, sequence (Q00975 whole entry): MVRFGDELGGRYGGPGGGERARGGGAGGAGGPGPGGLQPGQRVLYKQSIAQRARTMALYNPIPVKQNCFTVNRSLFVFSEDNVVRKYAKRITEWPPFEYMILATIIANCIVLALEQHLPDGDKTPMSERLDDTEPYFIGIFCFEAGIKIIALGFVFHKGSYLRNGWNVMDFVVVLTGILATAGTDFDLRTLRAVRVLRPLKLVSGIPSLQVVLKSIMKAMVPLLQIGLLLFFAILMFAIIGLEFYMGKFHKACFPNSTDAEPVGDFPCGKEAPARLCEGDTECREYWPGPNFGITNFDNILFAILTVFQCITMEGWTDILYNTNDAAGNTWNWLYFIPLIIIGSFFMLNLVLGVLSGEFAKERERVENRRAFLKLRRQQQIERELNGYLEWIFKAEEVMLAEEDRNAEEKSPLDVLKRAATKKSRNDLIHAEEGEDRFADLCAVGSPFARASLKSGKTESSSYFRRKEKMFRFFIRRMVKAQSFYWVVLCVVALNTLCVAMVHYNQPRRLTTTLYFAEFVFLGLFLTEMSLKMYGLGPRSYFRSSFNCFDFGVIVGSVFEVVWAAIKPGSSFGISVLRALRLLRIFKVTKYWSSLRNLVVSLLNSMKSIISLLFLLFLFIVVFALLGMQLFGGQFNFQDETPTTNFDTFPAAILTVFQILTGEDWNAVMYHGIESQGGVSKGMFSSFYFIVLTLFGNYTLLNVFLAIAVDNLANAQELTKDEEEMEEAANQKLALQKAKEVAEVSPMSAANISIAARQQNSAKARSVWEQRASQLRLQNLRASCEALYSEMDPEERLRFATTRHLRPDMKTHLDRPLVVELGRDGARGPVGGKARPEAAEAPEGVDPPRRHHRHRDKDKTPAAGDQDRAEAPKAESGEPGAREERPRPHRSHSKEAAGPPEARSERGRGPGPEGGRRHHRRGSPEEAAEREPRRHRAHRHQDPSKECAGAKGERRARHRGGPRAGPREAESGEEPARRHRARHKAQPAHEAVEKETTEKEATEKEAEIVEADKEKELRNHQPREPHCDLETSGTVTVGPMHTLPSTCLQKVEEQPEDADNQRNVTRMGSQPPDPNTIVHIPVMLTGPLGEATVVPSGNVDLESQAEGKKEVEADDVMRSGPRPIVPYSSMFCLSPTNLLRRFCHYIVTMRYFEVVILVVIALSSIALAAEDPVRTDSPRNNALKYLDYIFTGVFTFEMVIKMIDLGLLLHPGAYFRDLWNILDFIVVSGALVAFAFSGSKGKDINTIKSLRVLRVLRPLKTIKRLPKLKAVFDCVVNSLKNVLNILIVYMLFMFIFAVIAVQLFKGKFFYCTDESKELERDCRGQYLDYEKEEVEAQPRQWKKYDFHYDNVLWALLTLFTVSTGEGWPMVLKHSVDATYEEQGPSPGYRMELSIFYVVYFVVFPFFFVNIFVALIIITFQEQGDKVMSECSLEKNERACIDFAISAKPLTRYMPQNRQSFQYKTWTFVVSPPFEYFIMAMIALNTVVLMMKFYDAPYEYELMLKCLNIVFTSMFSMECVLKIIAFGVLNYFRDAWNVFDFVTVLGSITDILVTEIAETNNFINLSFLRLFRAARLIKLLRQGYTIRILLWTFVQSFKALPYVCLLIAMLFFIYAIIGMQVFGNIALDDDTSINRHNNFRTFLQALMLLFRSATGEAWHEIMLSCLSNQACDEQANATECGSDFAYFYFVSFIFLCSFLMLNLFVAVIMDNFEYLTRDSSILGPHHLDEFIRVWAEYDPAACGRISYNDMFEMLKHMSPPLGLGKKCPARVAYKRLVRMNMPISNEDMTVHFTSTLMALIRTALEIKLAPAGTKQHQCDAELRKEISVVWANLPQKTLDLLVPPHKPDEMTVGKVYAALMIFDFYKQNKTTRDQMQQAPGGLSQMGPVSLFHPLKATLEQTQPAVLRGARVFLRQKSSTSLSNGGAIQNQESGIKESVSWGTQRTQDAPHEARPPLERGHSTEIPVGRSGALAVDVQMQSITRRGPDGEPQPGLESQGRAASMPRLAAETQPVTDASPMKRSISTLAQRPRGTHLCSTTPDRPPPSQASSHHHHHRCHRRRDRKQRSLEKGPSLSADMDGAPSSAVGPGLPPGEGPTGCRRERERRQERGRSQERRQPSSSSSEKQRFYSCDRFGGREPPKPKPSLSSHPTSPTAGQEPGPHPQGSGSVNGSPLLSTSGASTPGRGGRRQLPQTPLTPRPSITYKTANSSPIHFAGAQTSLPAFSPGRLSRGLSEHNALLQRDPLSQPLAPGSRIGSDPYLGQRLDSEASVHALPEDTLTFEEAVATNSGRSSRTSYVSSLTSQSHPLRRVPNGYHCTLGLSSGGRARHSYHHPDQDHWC

Assay [3] addresses Neuronal acetylcholine receptor; alpha9/alpha10 (Homo sapiens, UniProt Q9GZZ6+Q9UGM1). Description: Antagonist activity at human alpha9alpha10 nAChR expressed in acetylcholine-induced Xenopus laevis oocytes assessed as inhibition of acetylcholine-induced current by two electrode voltage-clamp assay. The format is cell-based, Oocyte.

Neuronal acetylcholine receptor; alpha9/alpha10, sequence (Q9UGM1 whole entry): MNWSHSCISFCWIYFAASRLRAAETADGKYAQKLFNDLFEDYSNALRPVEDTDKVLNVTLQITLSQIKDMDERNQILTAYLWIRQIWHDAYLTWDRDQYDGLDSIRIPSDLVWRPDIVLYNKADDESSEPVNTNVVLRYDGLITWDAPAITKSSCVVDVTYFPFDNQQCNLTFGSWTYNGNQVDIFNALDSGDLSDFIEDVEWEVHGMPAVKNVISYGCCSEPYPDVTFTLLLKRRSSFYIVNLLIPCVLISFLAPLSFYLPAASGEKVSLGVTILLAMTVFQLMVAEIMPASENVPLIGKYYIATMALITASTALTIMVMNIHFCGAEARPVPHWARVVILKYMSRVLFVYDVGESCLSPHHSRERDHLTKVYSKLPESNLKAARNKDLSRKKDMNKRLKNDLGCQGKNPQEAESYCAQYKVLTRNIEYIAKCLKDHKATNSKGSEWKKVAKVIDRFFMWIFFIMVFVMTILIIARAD
Neuronal acetylcholine receptor; alpha9/alpha10, sequence (Q9GZZ6 whole entry): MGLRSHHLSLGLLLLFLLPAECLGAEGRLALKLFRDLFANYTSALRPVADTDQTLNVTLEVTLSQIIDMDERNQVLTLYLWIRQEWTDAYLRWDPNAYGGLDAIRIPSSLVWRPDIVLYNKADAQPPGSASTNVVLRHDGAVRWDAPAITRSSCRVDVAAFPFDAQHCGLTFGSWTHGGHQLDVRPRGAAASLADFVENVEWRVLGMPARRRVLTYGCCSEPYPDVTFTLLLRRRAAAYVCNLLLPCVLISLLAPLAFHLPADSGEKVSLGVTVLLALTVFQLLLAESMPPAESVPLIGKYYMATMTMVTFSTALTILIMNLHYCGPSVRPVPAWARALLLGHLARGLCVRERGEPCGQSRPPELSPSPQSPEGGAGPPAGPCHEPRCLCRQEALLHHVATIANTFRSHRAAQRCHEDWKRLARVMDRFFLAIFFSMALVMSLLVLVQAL

Regarding `C[C@@H](O)[C@@H]1NC(=O)[C@@H]2CSSC[C@@H](C(=O)N[C@@H](Cc3ccc(O)cc3)C(=O)O)NC(=O)[C@H](CCC(N)=O)NC(=O)[C@H](Cc3ccc(O)c(I)c3)NC(=O)[C@H](CCCNC(=N)N)NC(=O)[C@H](CSSC[C@H](NC(=O)CN)C(=O)N2)NC(=O)[C@H](CCCNC(N)=O)NC(=O)[C@@H]2CCCN2C(=O)[C@H](CC(=O)O)NC1=O`, the outcome in assay [1] was Active. On to `CC[C@H](C)[C@@H]1NC(=O)[C@H](CCCNC(=N)N)NC(=O)[C@H](CCCNC(=N)N)NC(=O)[C@@H]2CSSC[C@H](NC(=O)[C@H](N)[C@H](C)O)C(=O)N[C@@H](CCCNC(=N)N)C(=O)N[C@@H](CO)C(=O)N[C@@H](CO)C(=O)NCC(=O)N[C@@H](CCCNC(=N)N)C(=O)N[C@@H](Cc3ccc(O)cc3)C(=O)N[C@H](CSSC[C@H](C(=O)N[C@H](C(N)=O)C(C)C)NC(=O)[C@H](C)NC(=O)[C@H](CC(=O)O)NC(=O)[C@H]([C@@H](C)O)NC1=O)C(=O)N[C@@H](CCCNC(=N)N)C(=O)N[C@@H](CO)C(=O)N1CCC[C@H]1C(=O)N[C@@H](Cc1ccc(O)cc1)C(=O)N[C@@H](CC(=O)O)C(=O)N[C@@H](CCCNC(=N)N)C(=O)N[C@@H](CCCNC(=N)N)C(=O)N[C@@H](CCCNC(=N)N)C(=O)N[C@@H](CCCNC(=N)N)C(=O)N[C@@H](Cc1ccc(O)cc1)C(=O)N2`, for which the IC50 in assay [2] was 3 nM; in assay [3] it was 116 nM.

By IC50 is commonly meant the concentration that gives 50% inhibition.

The record behind these values is ChEMBL document CHEMBL5537181 (J Med Chem, 2024).
